Test results published in patent US20240401094A1, “SOLID FORM OF (-)-AMBROX FORMED BY A BIOCONVERSION OF HOMOFARNESOL IN THE PRESENCE OF A BIOCATALYST” (Givaudan SA, priority 2016, published 2024).

Assay: Sensory analysis (odour / GC-detection threshold and odour character)
Conditions: for odour description: result in words
Description: Purpose: to Carry Out a Sensory Analysis of (−)-Ambrox and the Compounds (II), (III) and (IV) Formed in the Crude Material and in the Crystallised Material.

For `CC1(C)CCC[C@]2(C)[C@H]3CCO[C@]3(C)CC[C@@H]12` [(−)-Ambrox], the “Odour Threshold” value (sensory analysis) was 0.2 ng/L.
With `C/C1=C/CCO[C@@]2(C)CCCC(C)(C)[C@@H]2CC1` [Compound (II)] the detection threshold (as stated in the description) was over 500 ng/L, the GC-detection threshold (sensory analysis) was over 500 ng and the odour description (sensory analysis) was ““odorless””. For the same compound, the odour description (sensory analysis, listed as II) was “weaker odour” and the odour description (sensory analysis, listed as compound of formula (II)) was “practically odourless”.
With `CC1(C)CCC[C@@]2(C)[C@H]1CC[C@@]1(C)OCC[C@@H]21` [Compound (III), epi-Ambrox] the “GC-threshold relative to (−)-Ambrox (times higher)” value (compared with (−)-Ambrox) was “about 10 ×”, the “odor weaker than (−)-Ambrox” value (compared with (−)-Ambrox) was “about 10 fold” and the GC-detection threshold (sensory analysis) was “circa 2 ng”. For the same compound, the odour description (sensory analysis, listed as Compound III) was “essentially odorless” and the odour description (sensory analysis, listed as III) was “weaker odour”.
With `CC1(C)CCC[C@@]2(C)[C@H]1CC[C@]1(C)OCC[C@@H]21` [Compound (IV)] the GC-detection threshold (sensory analysis) was 5 to 10 ng, the odour description (sensory analysis) was “weak, IsoE, woody” and the odour description (sensory analysis, listed as IV) was “weaker odour”.
